From patent publication US9062124B2, “GIP-based mixed agonists for treatment of metabolic disorders and obesity” (priority 2008, dated 2015)
Where a SMILES comes first, the peptide text is derived from it. Bridges are numbered along the chain shown (N, C = ends). [ ]: non-standard residue; d: D form. Aib = CC(C)(N)C(=O)O

How the values were obtained:
Assay type in all cases: cell-based
[1] = target: T1, glucagon receptor (Homo sapiens, UniProt P47871); assay: cAMP synthesis functional assay (firefly luciferase reporter in HEK293 cells), glucagon receptor; settings: Table 1; for Glucagon Receptor relative activity: relative to the native hormone of the indicated receptor
T1 construct: expressed in transfected cells; host or cells: HEK293
T1 sequence (P47871 26-477): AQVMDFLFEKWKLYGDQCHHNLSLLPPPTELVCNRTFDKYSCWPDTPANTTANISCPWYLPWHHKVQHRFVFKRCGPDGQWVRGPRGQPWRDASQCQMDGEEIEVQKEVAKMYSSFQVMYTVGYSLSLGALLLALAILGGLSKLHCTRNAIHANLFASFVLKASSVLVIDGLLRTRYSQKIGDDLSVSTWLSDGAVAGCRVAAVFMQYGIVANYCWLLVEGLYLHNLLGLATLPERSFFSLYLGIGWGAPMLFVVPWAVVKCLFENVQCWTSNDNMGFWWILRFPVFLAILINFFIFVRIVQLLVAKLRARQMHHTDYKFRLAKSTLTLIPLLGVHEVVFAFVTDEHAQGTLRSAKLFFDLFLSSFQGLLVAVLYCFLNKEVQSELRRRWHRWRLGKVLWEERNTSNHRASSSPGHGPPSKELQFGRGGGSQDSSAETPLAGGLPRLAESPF

[2] = target: T2, GLP-1 receptor (Homo sapiens, UniProt P43220); assay: cAMP synthesis functional assay (firefly luciferase reporter in HEK293 cells), GLP-1 receptor; settings: Table 1; for GLP-1 Receptor relative activity: relative to the native hormone of the indicated receptor
T2 construct: expressed in transfected cells; host or cells: HEK293
T2 sequence (P43220 24-463, species assumed): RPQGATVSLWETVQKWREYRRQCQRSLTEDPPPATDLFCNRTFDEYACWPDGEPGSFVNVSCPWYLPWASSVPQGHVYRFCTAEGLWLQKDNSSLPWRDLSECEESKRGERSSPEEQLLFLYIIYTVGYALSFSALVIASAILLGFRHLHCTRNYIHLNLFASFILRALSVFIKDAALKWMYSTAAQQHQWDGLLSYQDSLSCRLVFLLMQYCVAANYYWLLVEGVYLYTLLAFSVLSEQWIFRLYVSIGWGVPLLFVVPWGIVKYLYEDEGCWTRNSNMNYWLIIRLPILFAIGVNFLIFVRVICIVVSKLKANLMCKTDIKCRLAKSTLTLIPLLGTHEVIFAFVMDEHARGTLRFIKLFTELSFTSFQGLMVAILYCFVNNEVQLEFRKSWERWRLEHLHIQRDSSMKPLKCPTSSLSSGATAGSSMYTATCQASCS

[3] = target: T3, GIP receptor (Homo sapiens, UniProt P48546); assay: cAMP synthesis functional assay (firefly luciferase reporter in HEK293 cells), GIP receptor; settings: Table 1; for GIP Receptor relative activity: relative to the native hormone of the indicated receptor
T3 construct: expressed in transfected cells; host or cells: HEK293
T3 sequence (P48546 22-466): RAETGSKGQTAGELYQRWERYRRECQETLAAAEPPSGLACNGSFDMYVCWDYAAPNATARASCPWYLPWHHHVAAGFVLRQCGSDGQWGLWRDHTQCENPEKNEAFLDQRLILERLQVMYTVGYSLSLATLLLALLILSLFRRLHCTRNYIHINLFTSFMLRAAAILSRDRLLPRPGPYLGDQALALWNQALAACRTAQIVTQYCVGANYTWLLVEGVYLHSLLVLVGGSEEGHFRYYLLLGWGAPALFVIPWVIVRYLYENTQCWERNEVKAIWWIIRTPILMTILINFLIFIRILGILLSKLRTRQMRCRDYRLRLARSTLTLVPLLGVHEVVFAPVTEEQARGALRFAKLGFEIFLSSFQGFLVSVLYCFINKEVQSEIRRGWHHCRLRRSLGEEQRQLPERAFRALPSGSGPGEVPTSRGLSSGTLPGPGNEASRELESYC

[4] = test system: glucagon receptor, GLP-1 receptor or GIP receptor; assay: Agonist profile across receptors assigned from the cAMP reporter assay data; settings: assigned from the in vitro EC50 data of Tables 1-4

CC[C@H](C)[C@H](NC(=O)[C@H](CO)NC(=O)[C@H](Cc1ccc(O)cc1)NC(=O)[C@H](CC(=O)O)NC(=O)[C@H](CO)NC(=O)[C@@H](NC(=O)[C@H](Cc1ccccc1)NC(=O)[C@@H](NC(=O)CNC(=O)[C@H](CCC(N)=O)NC(=O)C(C)(C)NC(=O)[C@@H](N)Cc1ccc(O)cc1)[C@@H](C)O)[C@@H](C)CC)C(=O)N[C@@H](Cc1ccc(O)cc1)C(=O)N[C@@H](CC(C)C)C(=O)N[C@@H](CC(=O)O)C(=O)N[C@H]1CCC(=O)NCCCC[C@@H](C(=O)N[C@@H](CCC(=O)O)C(=O)N[C@@H](Cc2ccccc2)C(=O)N[C@H](C(=O)N[C@@H](CC(N)=O)C(=O)N[C@@H](Cc2c[nH]c3ccccc23)C(=O)N[C@@H](CC(C)C)C(=O)N[C@@H](CC(C)C)C(=O)N[C@@H](C)C(=O)NCC(=O)NCC(=O)N2CCC[C@H]2C(=O)N[C@@H](CO)C(=O)N[C@@H](CO)C(=O)NCC(=O)N[C@@H](C)C(=O)N2CCC[C@H]2C(=O)N2CCC[C@H]2C(=O)N2CCC[C@H]2C(=O)N[C@@H](CO)C(=O)N[C@@H](CS)C(N)=O)C(C)C)NC(=O)[C@H](C)NC(=O)[C@H](C)NC(=O)[C@H](CCC(N)=O)NC1=O [mt-176] was tested, and the “Glucagon Receptor relative activity” value [1] was 26.24%, the “GLP-1 Receptor relative activity” value [2] was 0.23% and the “GIP Receptor relative activity” value [3] was 40.00%. The “receptor activity profile (glucagon / GLP-1 / GIP agonism)” value [4] was “exemplary GIP/glucagon co-agonist peptides”.
For CC[C@H](C)[C@H](NC(=O)[C@H](CO)NC(=O)[C@H](Cc1ccc(O)cc1)NC(=O)[C@H](CC(=O)O)NC(=O)[C@H](CO)NC(=O)[C@@H](NC(=O)[C@H](Cc1ccccc1)NC(=O)[C@@H](NC(=O)CNC(=O)[C@H](CCC(N)=O)NC(=O)C(C)(C)NC(=O)[C@@H](N)Cc1ccc(O)cc1)[C@@H](C)O)[C@@H](C)CC)C(=O)N[C@@H](Cc1ccc(O)cc1)C(=O)N[C@@H](CC(C)C)C(=O)N[C@@H](CC(=O)O)C(=O)N[C@H]1CCC(=O)NCCCC[C@@H](C(=O)N[C@@H](CCC(=O)O)C(=O)N[C@@H](Cc2ccccc2)C(=O)N[C@H](C(=O)N[C@@H](CS)C(=O)N[C@@H](Cc2c[nH]c3ccccc23)C(=O)N[C@@H](CC(C)C)C(=O)N[C@@H](CC(C)C)C(=O)N[C@@H](C)C(=O)NCC(N)=O)C(C)C)NC(=O)[C@H](C)NC(=O)[C@H](C)NC(=O)[C@H](CCC(N)=O)NC1=O [mt-177] (H-Y[Aib]QGTFISDYSIYLDEQAAKEFVCWLLAG-NH2; lactam 16-20; N-terminus assumed), the EC50 ([1]; Glucagon Receptor EC50, nM) was 0.095 nM, the “Glucagon Receptor relative activity” value [1] was 38.95% and the EC50 ([2]; GLP-1 Receptor EC50, nM) was 21 nM. For the same compound, the “GLP-1 Receptor relative activity” value [2] was 0.10%, the EC50 ([3]; GIP Receptor EC50, nM) was 0.114 nM and the “GIP Receptor relative activity” value [3] was 19.30%. The “receptor activity profile (glucagon / GLP-1 / GIP agonism)” value [4] was “exemplary GIP/glucagon co-agonist peptides”.
CC[C@H](C)[C@H](NC(=O)[C@H](CO)NC(=O)[C@H](Cc1ccc(O)cc1)NC(=O)[C@H](CC(=O)O)NC(=O)[C@H](CO)NC(=O)[C@@H](NC(=O)[C@H](Cc1ccccc1)NC(=O)[C@@H](NC(=O)CNC(=O)[C@H](CCC(N)=O)NC(=O)C(C)(C)NC(=O)[C@@H](N)Cc1ccc(O)cc1)[C@@H](C)O)[C@@H](C)O)C(=O)N[C@@H](Cc1ccc(O)cc1)C(=O)N[C@@H](CC(C)C)C(=O)N[C@@H](CC(=O)O)C(=O)N[C@@H](CCC(=O)O)C(=O)N[C@@H](CCC(=O)O)C(=O)N[C@@H](C)C(=O)N[C@H](C(=O)N[C@@H](CCCNC(=N)N)C(=O)N[C@@H](CC(C)C)C(=O)N[C@@H](Cc1ccccc1)C(=O)N[C@H](C(=O)N[C@@H](CC(N)=O)C(=O)N[C@@H](Cc1c[nH]c2ccccc12)C(=O)N[C@@H](CC(C)C)C(=O)N[C@@H](CC(C)C)C(=O)N[C@@H](C)C(=O)NCC(=O)NCC(=O)N1CCC[C@H]1C(=O)N[C@@H](CO)C(=O)N[C@@H](CO)C(=O)NCC(=O)N[C@@H](C)C(=O)N1CCC[C@H]1C(=O)N1CCC[C@H]1C(=O)N1CCC[C@H]1C(=O)N[C@@H](CO)C(N)=O)C(C)C)C(C)C [mt-201] (H-Y[Aib]QGTFTSDYSIYLDEEAVRLFVNWLLAGGPSSGAPPPS-NH2; N-terminus assumed) was tested, and the “Glucagon Receptor relative activity” value [1] was 0.24%, the “GLP-1 Receptor relative activity” value [2] was 191.67% and the “GIP Receptor relative activity” value [3] was 44.44%. For the same compound, the “receptor activity profile (glucagon / GLP-1 / GIP agonism)” value [4] was “exemplary GLP-1/GIP co-agonist peptides”.
